The values that follow come from patent publication US6943026B1, “Antitumour vector constructs and methods” (Cyclacel Limited, priority 1995, dated 2005).

The subject of the data set is Saos-2 cells. Kind of data set: GCV tolerance (toxicity of GCV alone to cells). The class given is cell-based, human. The conditions noted are these: 1.25×10^−5-6.2×10^−5M. As for the experimental part: The GCV tolerance profile of Saos-2 cells was determined in parallel by treating the cells with various concentrations of GCV (ranging from 0.1 μmole to 2 mM).
The toxicity of the GCV to cells were analysed by subjecting the cells to various concentration of GCV (ranging from 0.1 μmole to 2 mM GCV at 37° C.) for 3 days. The remaining steps of the treatment were carried out as the tk-GCV assay.

On to `Nc1nc(O)c2ncn(COC(CO)CO)c2n1` [Gancyclovir, Ganciclovir], for which the “effect on cell viability of gancyclovir by itself” value is listed as “no effect”.
